# Results published in a melting point compilation (Tetko et al.; mined from patent text by program, amines drawn as free bases though some values may be those of a salt).
row,Compound,melting point [°C]
1,C=CCc1c(C(=O)OC)[nH]c2c(C)ccc(C)c12,135 to 136
2,O=C(c1ccc(Cl)cc1)c1ccc2[nH]c(=O)cc(C(=O)O)c2c1,> 260
3,O=C1c2cc(Cl)ccc2OC(CCCCl)N1O (configuration not stated),70 to 75
4,CC(=O)OCC(=O)C1C(C)CC2C3CC(Cl)C4=CC(=O)C=CC4(C)C3(Cl)C(O)CC21C (configuration not stated),238
5,Cc1ccc2nc(N3CCN(c4c(Cl)cncc4Cl)CC3)[nH]c2c1,251 to 254
6,CC(=O)N1C(=O)C(C(=O)Cc2cccs2)c2ccccc21 (configuration not stated),136 to 137
7,COP(=O)(CC(=O)COc1ccc(Cl)cn1)OC,37 to 40
8,COc1cc(C(=O)N2CCC(CCN3CCC(Nc4nc5ccccc5n4Cc4nccn4Cc4ccccc4)CC3)(c3ccc(F)cc3)C2)cc(OC)c1OC (configuration not stated),95 to 100
9,C[C@H]1C[C@@](O)(c2cccc(Sc3ccc4c(c3)CC(=O)N4C)c2)CCO1,110 to 111
10,CCCCCC(=O)c1c(C)nc2cc(OC)c(OC)cc2c1-c1ccc(OC)c(OC)c1,123 to 125
11,OC1(c2ccc(F)cc2)N=C2SCCN2C1c1ccc(F)cc1 (configuration not stated),159 to 160
12,CC(C)(C)c1cc(C(=O)c2ncc[nH]2)cc(C(C)(C)C)c1O,286 to 288
13,CCOC(=O)CNC(=O)Nc1c(-c2ccccc2OC)c2ccccc2c(=O)n1C,128 to 130
14,CC(C)c1nn(-c2nnc(C(F)(F)F)s2)cc1CCCO,89 to 90
15,CS(=O)(=O)c1ccc(-c2cnn(Cc3ccccc3)c(=O)c2-c2ccc(Cl)c(Cl)c2)cc1,161 to 163
16,Cc1cc(O)c(C)c2c1NCC2,155 to 158
17,C=C(C)C(=O)NC(=O)Nc1ccccc1,165 to 166
18,O=C1Oc2ccc3ccccc3c2CC1C(=O)c1cccc(C(F)(F)F)c1 (configuration not stated),192 to 193
19,CN(CCCSCCCC(F)(F)C(F)(F)F)CCOc1ccc(C2=C(c3ccccc3)CCCc3cc(O)ccc32)cc1,40 to 42
20,CC1CN(C2=Nc3ccccc3Oc3ccccc32)C(C)CN1 (configuration not stated),46 to 48
21,O=C1C2=C(c3ccccc3)N(c3ccccc3)C(=O)C2=C(c2ccccc2)N1c1ccccc1,> 300
22,CC1(C)COC(=S)N(Cc2ccccc2NS(=O)(=O)C(F)(F)F)C1,130
23,Fc1cccc(C2=NOCCS2)c1,47 to 49
24,C#CCOc1ccc(-c2nc3cnccc3[nH]2)c(OC)c1,210
25,COc1ccc(Nc2ccn(C(C)=O)n2)cc1,123 to 124

row,Compound,melting point [°C]
1,O=C(O)c1ccc2nc(-c3ccccc3)c(-c3ccccc3)nc2c1,290 to 292
2,CC(=O)c1cccc(Nc2c3ccccc3nc3occc23)c1,158 to 159
3,Cn1c(C(F)(F)F)cc(=O)n(-c2ccc3snc(C4(O)N=C(c5ccccc5)NC4=O)c3c2)c1=O (configuration not stated),139 to 141
4,COc1cc(OC)c2c(c1)OC(C)(C)CC2NNc1ncnc2c1ncn2C1OC(CO)C(O)C1O (configuration not stated),111 to 113
5,CCCC[C@H](NC(=O)[C@H](CC(C)C)NC(=O)OC(C)(C)C)C(=O)CCCc1cccs1,70 to 72
6,COc1cc([C@@H](O)[C@@H](C)N2CCC(O)(c3ccccc3)CC2)ccc1O (relative stereo),188
7,CC12CC(O)C3(F)C(CCC4=CC(=O)C=CC43C)C1CC=C2SCOC(=O)c1ccccc1 (configuration not stated),220 to 222
8,CC(C)C(=O)NCCCCN1CCN(c2csc3cc(F)ccc23)CC1,130 to 131
9,O=C(N[C@H]1CC[C@H](CCN2CCN(c3nccc4c3OCC4)CC2)CC1)c1ccnc2ccccc12,222
10,Cc1ccc(Nc2cc(-c3ccccc3)nc(-c3ccccc3)c2)cc1,125
11,COc1c(-c2cc3c(s2)CC(O)C3)ccc2c(=O)c(C(=O)O)cn(C3CC3)c12 (configuration not stated),254 to 255
12,NS(=O)(=O)Oc1ccc(-c2ccccc2)cc1,166 to 168
13,CC(C)[Si](C#Cc1c2cc3ccccc3cc2c(C#C[Si](C(C)C)(C(C)C)C(C)C)c2cc3ccccc3cc12)(C(C)C)C(C)C,210
14,CC(=O)OCC(=O)C1(OC(C)=O)C(C)CC2C3CCC4=CC(=O)C=CC4(C)C3(F)C=CC21C (configuration not stated),135 to 136
15,O=S(=O)(Cc1ccccc1)On1nnc2ccccc21,65 to 67
16,COc1cc(Nc2nccc(-c3ccc(N)s3)n2)cc(OC)c1OC,161 to 162
17,O=C(NC1CCCCC1)NS(=O)(=O)c1ccc(CCNC(=O)N2CCC3=C(CCCC3)C2=O)cc1,176 to 177
18,CC(=O)N1CCCn2nc(-c3ccncc3)c(-c3ccc(F)cc3)c21,184 to 185
19,O=c1[nH]c(=O)n(C2OC(CO)C(O)C2O)cc1C(Cl)=CI (configuration not stated),109 to 111
20,COc1ccc(CCNC(=O)CCc2ccccc2C(=O)NCCc2ccccc2)cc1OC,122 to 123
21,COC1CCC2C3CCC4CC(=O)C=CC4(C)C3CCC12C (configuration not stated),115 to 117
22,CCOC(=O)c1ccc(NC(=O)c2ccc(OC)c(OC)c2)c2ccccc12,144 to 146
23,COc1c(O)nc(-c2ccc(OCc3ccccc3)cc2)nc1O,251 to 252
24,c1ccc(CC[C@H]2CNCCN2)cc1,114 to 115
25,O=C(Nc1cc(-c2nc(Cc3ccccc3)no2)ccn1)c1ccccc1,150 to 151

row,Compound,melting point [°C]
1,O=C(CC1CCCCCC1=O)c1ccc(Br)cc1 (configuration not stated),124 to 127
2,CC(=O)Nc1ccc(S(=O)(=O)N[C@@H]2COCOC[C@H]2O)cc1 (relative stereo),161 to 163
3,Nc1cccc(-c2nn(Cc3oc4ccccc4c(=O)c3-c3ccccc3)c3ncnc(N)c23)c1,157 to 159
4,"Cc1cccc(Sc2ccc3c(c2)CCC2N(C)C(=O)CCC32C)c1 (single isomer, unassigned; (+))",103 to 104
5,COc1c(F)c(C)c(F)c(OC)c1CO,80 to 81
6,CS(=O)(=O)c1ccc(-c2ccc3cnc(Nc4ccc(N5CCCCC5)cc4)nn23)cc1,204 to 209
7,Cn1cc(CCN2C(=O)c3ccccc3C2=O)c2cc(CNC=O)ccc21,189 to 191
8,CCCCN1CCC(n2c(=O)[nH]c3ccccc32)CC1,207 to 209
9,CCCc1nc2c(N)nc3ccccc3c2n1OC,210 to 211
10,COC(=O)c1nc2nccc(S)n2n1,206
11,O=C1c2ccccc2C(=O)N1CCOc1cccc2c1CCC2,128 to 132
12,Cc1cc(-c2cc(C(F)(F)F)n3ncc(-c4ccccn4)c3n2)ccc1Cl,183
13,CC(=O)N1CCC(C(=O)c2ccc(Br)cc2F)CC1,111 to 113
14,CCOC(=O)CN(C(=O)C(F)(F)F)C(NC(C)C)P(=O)(O)OSCC (configuration not stated),85 to 87
15,CCCCOc1cc(/C=C(\OCC)C(=O)O)ccc1OCCc1ccc(NC(C)=O)cc1,160
16,c1ccc(Cc2cc3ccncc3[nH]2)cc1,142 to 146
17,C=CCc1cc2c(c(CC=C)c1O)CCC(=O)N2,118 to 119
18,Cc1ccc2ncc(C)cc2c1,50
19,COc1ccc(C2=NN(C3CCN(C(=O)N4CCNC4=O)CC3)C(=O)[C@H]3CC=CC[C@@H]23)cc1Cl (relative stereo),216 to 218
20,OCCN1CCN(c2ccc(Nc3ncc4ccc(-c5cccnc5)n4n3)cc2)CC1,189 to 190
21,CC(Oc1ccc(S(C)=O)cc1)c1ccnc2ncnn12 (configuration not stated),89 to 102
22,Brc1cnn2c(-c3cccnc3)ccnc12,243 to 244
23,C=CCN1C(C(=O)Nc2coc3ccccc3c2=O)C(=O)c2ccccc2S1(=O)=O (configuration not stated),218 to 220
24,CCCCCS(=O)(=O)NC(=O)/C=C/c1cc(C(C)C)nn1Cc1ccc(Cl)cc1Cl,149 to 151
25,CC1=C(C(=O)OCC[Si](C)(C)C)C(c2cccc([N+](=O)[O-])c2)C(C(=O)OCC[Si](C)(C)C)=C(C)N1,120

row,Compound,melting point [°C]
1,O=S(=O)(/C=C/c1ccc(I)cc1)CS(=O)(=O)/C=C/c1ccc(I)cc1,253 to 255
2,CC(=O)NNC(=N)c1ncc([N+](=O)[O-])n1C,294
3,O=C(NC(Cc1ccc(OCc2ccc(C(F)(F)F)cc2)cc1)C(=O)O)c1cn2ccc(-c3ccc(Cl)cc3)cc2n1 (configuration not stated),263
4,N#CCCNC(=O)c1cccc(-c2ccc3c(c2)N(Cc2cc(Cl)ccc2Cl)CC3)c1,152 to 153
5,CC(CCN(C)c1ccc(Cl)cc1)NCC(O)c1ccc(O)c(C(N)=O)c1 (configuration not stated),127 to 129
6,Sc1nnc(Cc2ccc(Cl)cc2)o1,115
7,CCOC(=O)/C=C/c1nc(COc2ccc(C=O)cc2OC)c(C)o1,117 to 118
8,CCOC(=O)c1cnn2c1c(NC1CCCCC1)nc1ccccc12,132 to 135
9,CC(Cc1c[nH]c2ccccc12)(NC(=O)OC1C2CC3CC(C2)CC1C3)C(=O)NCC(NC(=O)C1CC1C(=O)O)c1ccccc1 (configuration not stated),138 to 142
10,CC(C)(C)OCC(NC(=O)c1ccccc1SSc1ccccc1C(=O)NC(COC(C)(C)C)C(=O)O)C(=O)O (configuration not stated),206 to 207
11,CCCCCCCCc1cc2c(cc1/C(C)=C/c1ccc(C(=O)O)cc1)C(C)(C)CCS2(=O)=O,176 to 178
12,O=c1nc(-c2cccc(OCc3ccccc3)n2)sc2ccccc12,241
13,CCOC(=O)C1CCN(Cc2c[nH]c3cccc(F)c23)CC1,96 to 105
14,CCC1CCCCCc2c1oc(=O)c(C(c1ccccc1)C1CC1)c2O (configuration not stated),94 to 98
15,C[C@H]1C(=O)OCN1C(=O)OCc1ccccc1,89 to 91
16,COc1ccc(OC)c2nc(Cl)c(C=O)cc12,177 to 178
17,Cc1cc(C2(C(F)(F)F)CC(n3cncn3)=NO2)ccc1NC(=O)OC(C)(C)C (configuration not stated),46 to 48
18,Cc1ccc(OC2CCN(C(=O)C(=O)Nc3ccc4[nH]c(=O)[nH]c4c3)CC2)cc1,294
19,NC(=O)Cc1cc(Oc2ccc3c(ccn3C(=O)Nc3ccc(N4CCS(=O)(=O)CC4)c(C(F)(F)F)c3)c2)ncn1,284 to 285
20,CN1Cc2c(-c3noc(CCl)n3)ncn2-c2ccc(F)c(Cl)c2C1=O,215 to 218
21,O=C(O)Cc1cccc(Cc2nc3c(F)c(F)cc(F)c3s2)c1,132 to 134
22,COc1cc(OC)cc(-c2nc[nH]c2-c2ccc(OC(F)(F)F)c(N)c2)c1,182 to 184
